The test system of data set [1] is ex vivo cultures of donor gut microbiome (BG medium). The data set is described as follows: MDMQ-Screen 20-donor screen: drug depletion and metabolite production in ex vivo cultures, targeted metabolomics by HPLC-HRMS. Conditions: for MDM in drug depletion across donors / MDM in metabolite production across donors / MDM (microbiome-derived metabolism) across donors: 20 donors, BG medium, drug 33 μM, 24-hour incubation; for MDM in drug depletion across donors: significant if FDR p<0.01 and depletion >50% vs controls; for MDM in metabolite production across donors: significant if FDR p<0.01 vs all three controls; for Pearson correlation coefficient of drug signal and sum of known metabolite signals (drug depletion vs metabolite production): all donor-drug ex vivo samples, known (quantified) metabolites only.

For data set [2] the test system is unchanged. The data set is described as follows: Untargeted metabolomics with molecular ion networking for new metabolite discovery in the 20-donor screen. The format is in vitro ADME, human. The method, then: In order to extract all features in a given sample, a batch recursive feature extraction method for small molecules and peptides within Profinder 8 (Agilent) can be used. The following settings in the method were changed from default: compound ion count threshold set to two ions, alignment retention time tolerance set to 0.2 min, minimum MFE score set to 90, minimum file prevalence set to 2, expected retention time set to ±1 min, retention time contribution to matching score set to 90, expected MS1 mass variation set to 10 ppm, expected retention time tolerance set to 0.2 min, absolute height threshold for EIC integration set to 2500 counts, and final absolute height threshold set to 5000. The resulting feature abundances were then analyzed in MATLAB. Any sample whose internal standard AUC is less than 10^6 was removed. Hypothesis testing was then performed using similar statistical methods as for metabolite production in the targeted metabolomics, except that the multiple hypothesis correction of Storey (Storey, 2002) was used in place of the Benjamini-Hochberg method and require a fold-change cut-off of two relative to all controls. […] All ions already quantified in the screen and all features that are statistically significant for more than one drug are removed. […]

Results on 17 compounds are retold here after patent US12692529B2, “Quantitative screen for the assessment of inter-individual variability in drug metabolism by the human gut microbiome” (The Trustees of Princeton University, priority 2020, dated 2026).

For `CC[C@H](C)C(=O)O[C@H]1C[C@@H](C)C=C2C=C[C@H](C)[C@H](CC[C@@H]3C[C@@H](O)CC(=O)O3)[C@H]21` [lovastatin], in data set [1], the “MDM in drug depletion across donors” value is reported as “variable” and the “MDM in metabolite production across donors” value was “variable”. Consider `C[C@]12CCC(=O)C=C1CC[C@@H]1[C@@H]2[C@@H](O)C[C@@]2(C)[C@H]1CC[C@]2(O)C(=O)CO` [hydrocortisone], for which the “MDM in drug depletion across donors” value in data set [1] is listed as “variable”. For `O=C(CCCCCCC(=O)Nc1ccccc1)NO` [vorinostat], in data set [1], the “MDM in drug depletion across donors” value is reported as “variable”; the “Pearson correlation coefficient of drug signal and sum of known metabolite signals (drug depletion vs metabolite production)” value is on record as −0.91. Take `COc1c(C)c2c(c(O)c1C/C=C(\C)CCC(=O)OCCN1CCOCC1)C(=O)OC2` [mycophenolate mofetil]: in data set [1], the “MDM in drug depletion across donors” value is “variable” and the “MDM in metabolite production across donors” value is given as “variable”.

Regarding `Cc1cccc(Nc2ccncc2S(=O)(=O)NC(=O)NC(C)C)c1` [torsemide], the “MDM (microbiome-derived metabolism) across donors” value in data set [1] is reported as “consistently negative”. Still for that read-out and setting: under `CCCN(CCC)CCc1cccc2c1CC(=O)N2` [ropinirole] stands “consistently negative”. As to `CC(=O)S[C@@H]1CC2=CC(=O)CC[C@]2(C)[C@H]2CC[C@@]3(C)[C@@H](CC[C@@]34CCC(=O)O4)[C@H]12` [spironolactone], in data set [1], the “MDM in drug depletion across donors” value is given as “consistently positive” and the “MDM in metabolite production across donors” value is reported as “variable”.

With `CCCCC(C)(O)C/C=C/[C@H]1[C@H](O)CC(=O)[C@@H]1CCCCCCC(=O)OC` (mixture of isomers) [misoprostol], the “MDM in drug depletion across donors” value in data set [1] was “consistently positive”. With `COC(=O)C1=C(C)NC(C)=C(C(=O)OCCN(C)Cc2ccccc2)C1c1cccc([N+](=O)[O-])c1` (stereo not drawn) [nicardipine], in data set [1] (after inclusion of 11 additional metabolites, FDR corrected p=0.0102), the “Pearson correlation coefficient of drug depletion and metabolite production after inclusion of metabolites discovered by untargeted metabolomics” value is given as −0.6. Also, the “Pearson correlation coefficient of drug signal and sum of known metabolite signals (drug depletion vs metabolite production)” value in data set [1] is given as −0.22. In addition, the “number of additional metabolites detected by the untargeted metabolomics pipeline” value in data set [2] is given as 11.

Take `CC1=C(CC(=O)O)c2cc(F)ccc2/C1=C\c1ccc([S+](C)[O-])cc1` (stereo not drawn) [sulindac]: in data set [1], the “MDM in drug depletion across donors” value is listed as “variable” and the “MDM in metabolite production across donors” value is listed as “variable”. Consider `O=C1CN=C(c2ccccc2Cl)c2cc([N+](=O)[O-])ccc2N1` [clonazepam], for which, in data set [1], the “MDM in drug depletion across donors” value is listed as “consistently positive” and the “MDM in metabolite production across donors” value is given as “consistently positive”. Regarding `C#C[C@]1(O)CC[C@H]2[C@@H]3CCC4=CC(=O)CC[C@@H]4[C@H]3CC[C@@]21CC` [levonorgestrel], in data set [1], the “MDM in drug depletion across donors” value is recorded as “variable”. Consider `CC(=O)N1CCN(c2ccc(OCC3COC(Cn4ccnc4)(c4ccc(Cl)cc4Cl)O3)cc2)CC1` (stereo not drawn) [ketoconazole], for which the “MDM (microbiome-derived metabolism) across donors” value in data set [1] was “consistently negative”. For the compound `Cc1nc2n(c(=O)c1CCN1CCC(c3noc4cc(F)ccc34)CC1)CCCC2` [risperidone], in data set [1], the “MDM in drug depletion across donors” value was “consistently positive”.

Turning to `Cc1ccc(C(=O)c2cc(O)c(O)c([N+](=O)[O-])c2)cc1` [tolcapone], the “MDM in metabolite production across donors” value in data set [1] is on record as “consistently positive”.

As for `CCCCCOC(=O)Nc1nc(=O)n([C@@H]2O[C@H](C)[C@@H](O)[C@H]2O)cc1F` [capecitabine], in data set [1], the “MDM in drug depletion across donors” value is recorded as “variable” and the “MDM in metabolite production across donors” value is reported as “variable”. Turning to `CC(C)/N=c1\cc2n(-c3ccc(Cl)cc3)c3ccccc3nc-2cc1Nc1ccc(Cl)cc1` [clofazimine], in data set [1], the “MDM in drug depletion across donors” value was “variable” and the “MDM in metabolite production across donors” value is on record as “variable”.
